Tests used:
[1] = target: Platelet-derived growth factor receptor beta (Mus musculus, UniProt P05622); test: Inhibition of glutamate/tyrosine (4:1) copolymer phosphorylation by mouse platelet-derived growth factor receptor-beta
[2] = target: Proto-oncogene tyrosine-protein kinase Src (Gallus gallus, UniProt P00523); test: Inhibition of glutamate/tyrosine (4:1) copolymer phosphorylation by avian c-Src tyrosine kinase
[3] = target: Vascular endothelial growth factor receptor (Homo sapiens, UniProt P17948+P35916+P35968); test: Inhibition of VEGF-stimulated human umbilical vein endothelial cell proliferation; assay type: functional, cell-based
[4] = target: Vascular endothelial growth factor receptor 2 (Homo sapiens, UniProt P35968); test: Inhibition of glutamate/tyrosine (4:1) copolymer phosphorylation by human VEGFR 2 in DELFIA assay
Sequence of Vascular endothelial growth factor receptor 2 (P35968 whole entry): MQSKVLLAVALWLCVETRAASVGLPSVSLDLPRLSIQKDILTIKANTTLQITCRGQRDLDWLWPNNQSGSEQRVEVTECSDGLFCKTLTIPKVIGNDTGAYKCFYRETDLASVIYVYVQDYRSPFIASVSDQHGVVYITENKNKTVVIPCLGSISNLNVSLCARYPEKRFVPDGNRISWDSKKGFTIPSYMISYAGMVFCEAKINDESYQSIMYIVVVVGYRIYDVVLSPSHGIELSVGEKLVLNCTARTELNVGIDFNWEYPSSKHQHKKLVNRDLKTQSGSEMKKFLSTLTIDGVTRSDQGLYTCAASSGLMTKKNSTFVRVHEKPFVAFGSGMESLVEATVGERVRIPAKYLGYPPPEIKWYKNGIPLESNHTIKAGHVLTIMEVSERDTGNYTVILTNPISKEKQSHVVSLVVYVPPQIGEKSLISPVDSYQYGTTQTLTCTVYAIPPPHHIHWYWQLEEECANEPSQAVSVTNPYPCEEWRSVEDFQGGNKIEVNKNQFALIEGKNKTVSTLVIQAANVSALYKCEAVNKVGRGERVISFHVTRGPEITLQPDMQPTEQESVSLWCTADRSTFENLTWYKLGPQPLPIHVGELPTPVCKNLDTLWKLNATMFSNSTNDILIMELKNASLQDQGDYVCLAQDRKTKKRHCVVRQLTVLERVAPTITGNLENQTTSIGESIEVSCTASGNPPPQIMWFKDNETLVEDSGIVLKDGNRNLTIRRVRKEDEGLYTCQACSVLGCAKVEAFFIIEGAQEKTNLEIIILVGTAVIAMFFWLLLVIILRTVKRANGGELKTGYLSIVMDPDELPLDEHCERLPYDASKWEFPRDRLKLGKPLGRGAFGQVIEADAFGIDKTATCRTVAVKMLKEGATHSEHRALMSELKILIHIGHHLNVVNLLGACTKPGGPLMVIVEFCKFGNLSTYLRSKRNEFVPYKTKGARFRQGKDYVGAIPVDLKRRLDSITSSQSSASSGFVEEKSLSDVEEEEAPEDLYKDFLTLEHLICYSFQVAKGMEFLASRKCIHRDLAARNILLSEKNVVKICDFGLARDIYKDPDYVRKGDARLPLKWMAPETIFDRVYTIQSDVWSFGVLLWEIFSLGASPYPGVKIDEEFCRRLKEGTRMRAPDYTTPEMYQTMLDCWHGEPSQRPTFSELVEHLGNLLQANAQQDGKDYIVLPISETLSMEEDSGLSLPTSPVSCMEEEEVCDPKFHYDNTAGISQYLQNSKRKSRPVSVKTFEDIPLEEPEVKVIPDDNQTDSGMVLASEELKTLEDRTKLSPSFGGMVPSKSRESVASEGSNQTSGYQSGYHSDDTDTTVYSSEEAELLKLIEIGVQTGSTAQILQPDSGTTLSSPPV

[5] = target: Platelet-derived growth factor receptor (PDGFr) (Rattus norvegicus, UniProt P20786+Q05030); test: Inhibition of PDGF-dependent rat glioma cell proliferation; assay type: functional

Sequence of Platelet-derived growth factor receptor beta (P05622 whole entry): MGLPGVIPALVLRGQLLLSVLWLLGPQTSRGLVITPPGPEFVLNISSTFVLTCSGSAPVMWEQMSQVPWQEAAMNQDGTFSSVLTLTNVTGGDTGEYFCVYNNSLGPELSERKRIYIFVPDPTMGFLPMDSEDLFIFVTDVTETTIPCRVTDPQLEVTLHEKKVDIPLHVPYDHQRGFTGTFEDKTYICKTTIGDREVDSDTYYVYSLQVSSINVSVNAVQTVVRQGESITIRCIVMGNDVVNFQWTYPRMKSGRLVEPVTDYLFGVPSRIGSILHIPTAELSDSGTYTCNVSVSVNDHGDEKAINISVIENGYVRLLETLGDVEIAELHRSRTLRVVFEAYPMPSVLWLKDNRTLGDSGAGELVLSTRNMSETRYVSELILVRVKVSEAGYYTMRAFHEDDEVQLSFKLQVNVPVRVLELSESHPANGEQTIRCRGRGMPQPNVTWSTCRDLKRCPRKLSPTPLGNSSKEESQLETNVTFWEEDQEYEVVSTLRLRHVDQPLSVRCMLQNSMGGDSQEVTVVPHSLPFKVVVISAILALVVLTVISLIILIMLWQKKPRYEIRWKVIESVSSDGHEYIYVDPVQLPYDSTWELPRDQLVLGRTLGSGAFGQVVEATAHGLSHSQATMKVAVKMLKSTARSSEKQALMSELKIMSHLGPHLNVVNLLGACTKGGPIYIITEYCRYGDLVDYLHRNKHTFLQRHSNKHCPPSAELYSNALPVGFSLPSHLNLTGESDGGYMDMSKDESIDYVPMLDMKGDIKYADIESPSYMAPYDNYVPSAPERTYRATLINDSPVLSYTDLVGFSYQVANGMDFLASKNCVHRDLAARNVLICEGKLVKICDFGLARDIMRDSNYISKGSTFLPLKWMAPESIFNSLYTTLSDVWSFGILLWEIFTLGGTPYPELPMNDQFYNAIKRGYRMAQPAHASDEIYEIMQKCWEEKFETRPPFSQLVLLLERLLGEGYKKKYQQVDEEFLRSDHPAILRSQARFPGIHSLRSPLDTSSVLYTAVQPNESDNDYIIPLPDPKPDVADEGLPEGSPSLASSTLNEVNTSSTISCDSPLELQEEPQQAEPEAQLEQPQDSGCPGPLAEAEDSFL

`COc1cc(OC)cc(-c2cc3cnc(N(CCCOCc4ccccc4)C(C)=O)cc3nc2NC(=O)NC(C)(C)C)c1` was tested, and the IC50 [1] was greater than 50 µM and the IC50 [2] was greater than 50 µM.

Work on `COc1cc(OC)cc(-c2cc3cnc(NCCCOc4ccccc4)cc3nc2NC(=O)NC(C)(C)C)c1` yielded an IC50 [1] greater than 50 µM and an IC50 [2] greater than 50 µM.

`CCN(CC)CCCCNc1ncc2cc(-c3cc(OC)cc(OC)c3)c(NC(=O)NC(C)(C)C)nc2n1` [PD-173074] was tested, and the IC50 [1] was 14 µM, the IC50 [3] was 0.19 µM and the IC50 [4] was 0.12 µM. The IC50 [2] was 20 µM and the IC50 [5] was 17 µM.

`COc1cc(OC)cc(-c2cc3cnc(NCCCCN4CCOCC4)cc3nc2NC(=O)NC(C)(C)C)c1` gave an IC50 [1] of 15 µM, an IC50 [2] of 21 µM and an IC50 [5] of 2.7 µM.

Compound `CCN(CC)CCCCNc1cc2nc(NC(=O)NC(C)(C)C)c(-c3cc(OC)cc(OC)c3)cc2cn1` has an IC50 [1] of 2.6 µM, an IC50 [2] of 4.6 µM and an IC50 [5] of 2.1 µM.

`COc1cc(OC)cc(-c2cc3cnc(N(CCCO)C(C)=O)cc3nc2NC(=O)NC(C)(C)C)c1` showed an IC50 [1] greater than 50 µM and an IC50 [2] greater than 50 µM.

With `COc1cc(OC)cc(-c2cc3cnc(NCCCN4CCN(C)CC4)nc3nc2NC(=O)NC(C)(C)C)c1` the IC50 [1] was 31 µM, the IC50 [2] was 26 µM and the IC50 [5] was 7.9 µM.

For `COc1cc(OC)cc(-c2cc3cnc(NCCCCN4CCN(C)CC4)cc3nc2NC(=O)NC(C)(C)C)c1`, the IC50 [1] was 3.6 µM, the IC50 [2] was 4.1 µM and the IC50 [5] was 1.3 µM.

Compound `COc1cc(OC)cc(-c2cc3cnc(NCCCN4CCOCC4)cc3nc2NC(=O)NC(C)(C)C)c1` has an IC50 [2] greater than 50 µM and an IC50 [5] of 3.4 µM.

`COc1cc(OC)cc(-c2cc3cnc(N(CCCCO)C(C)=O)cc3nc2NC(=O)NC(C)(C)C)c1` gave an IC50 [1] greater than 50 µM and an IC50 [2] greater than 50 µM.

`CCNC(=O)Nc1nc2cc(NCCCCN(CC)CC)ncc2cc1-c1cc(OC)cc(OC)c1` showed an IC50 [1] of 6.5 µM, an IC50 [2] of 7 µM and an IC50 [5] of 3.5 µM.

Compound `CCN(CC)CCCCNc1cc2nc(N)c(-c3cc(OC)cc(OC)c3)cc2cn1` has an IC50 [1] greater than 50 µM, an IC50 [2] of 26 µM and an IC50 [5] of 5.9 µM.

`CN1CCN(CCCNc2cc3nc(N)c(-c4c(Cl)cccc4Cl)cc3cn2)CC1` was tested, and the IC50 [1] was 4.7 µM and the IC50 [2] was 0.069 µM.

`COc1cc(OC)cc(-c2cc3cnc(NCCCCCN4CCOCC4)cc3nc2NC(=O)NC(C)(C)C)c1` showed an IC50 [1] greater than 50 µM, an IC50 [2] of 16 µM and an IC50 [5] of 2.9 µM.

`COc1cc(OC)cc(-c2cc3cnc(NCCCN4CCN(C)CC4)cc3nc2N)c1` showed an IC50 [1] of 50 µM, an IC50 [2] greater than 50 µM and an IC50 [5] of 9.1 µM.

In the case of `COc1cc(OC)cc(C2Cc3cnc(N(CCCOCc4ccccc4)C(C)=O)cc3N=C2NC(=O)NC(C)(C)C)c1` (stereo unspecified), the IC50 [1] is reported as greater than 50 µM and the IC50 [2] is reported as greater than 50 µM.

In the case of `CN1CCN(CCCNc2cc3nc(N)c(-c4ccccc4)cc3cn2)CC1`, the IC50 [1] is reported as 8.8 µM and the IC50 [2] is reported as 1.6 µM.

`COc1cc(OC)cc(-c2cc3cnc(NCCCN4CCN(C)CC4)cc3nc2NC(=O)NC(C)(C)C)c1` was tested, and the IC50 [1] was 16 µM, the IC50 [2] was 9.1 µM and the IC50 [5] was 1.8 µM.

`COc1cc(OC)cc(-c2cc3cnc(N(CCCCCOCc4ccccc4)C(C)=O)cc3nc2NC(=O)NC(C)(C)C)c1` was tested, and the IC50 [1] was greater than 50 µM and the IC50 [2] was greater than 50 µM.

With `COc1cc(OC)cc(C2Cc3cnc(N(CCCCO)C(C)=O)cc3N=C2NC(=O)NC(C)(C)C)c1` (stereo unspecified) the IC50 [1] was greater than 50 µM and the IC50 [2] was greater than 50 µM.

For `CCN(CC)CCCCNc1cc2nc(NC(=O)NC(C)(C)C)c(-c3c(Cl)cccc3Cl)cc2cn1`, the IC50 [1] was 0.48 µM and the IC50 [2] was 0.014 µM.

Compound `CCN(CC)CCCNc1cc2nc(NC(=O)NC(C)(C)C)c(-c3cc(OC)cc(OC)c3)cc2cn1` has an IC50 [1] of 18 µM, an IC50 [2] of 16 µM and an IC50 [5] of 4 µM.

In the case of `COc1cc(OC)cc(-c2cc3cnc(NCCCCCO)cc3nc2NC(=O)NC(C)(C)C)c1`, the IC50 [1] is reported as 11 µM, the IC50 [2] is reported as greater than 50 µM and the IC50 [5] is reported as 3.4 µM.

With `CN1CCN(CCCNc2cc3nc(NCCCN4CCN(C)CC4)c(-c4ccccc4)cc3cn2)CC1` the IC50 [1] was greater than 50 µM and the IC50 [2] was 6.8 µM.

`COc1cc(OC)cc(C2Cc3cnc(N(CCCCCOCc4ccccc4)C(C)=O)cc3N=C2NC(=O)NC(C)(C)C)c1` (stereo unspecified) showed an IC50 [1] greater than 50 µM and an IC50 [2] greater than 50 µM.

In the case of `COc1cc(OC)cc(-c2cc3cnc(N(CCCCOCc4ccccc4)C(C)=O)cc3nc2NC(=O)NC(C)(C)C)c1`, the IC50 [1] is reported as greater than 50 µM and the IC50 [2] is reported as greater than 50 µM.

`CCN(CC)CCCCNc1cc2nc(N)c(-c3ccccc3)cc2cn1` gave an IC50 [1] of 12 µM and an IC50 [2] of 1.4 µM.

Compound `CCNC(=O)Nc1nc2cc(NCCCN3CCN(C)CC3)ncc2cc1-c1c(Cl)cccc1Cl` has an IC50 [1] of 0.54 µM and an IC50 [2] of 0.019 µM.

`COc1cc(OC)cc(C2Cc3cnc(N(CCCCCO)C(C)=O)cc3N=C2NC(=O)NC(C)(C)C)c1` (stereo unspecified) gave an IC50 [1] greater than 50 µM and an IC50 [2] greater than 50 µM.

`CCN(CC)CCCCNc1cc2nc(NC(=O)NC(C)(C)C)c(-c3ccccc3)cc2cn1` showed an IC50 [1] of 0.45 µM and an IC50 [2] of 0.11 µM.

`CCNC(=O)Nc1nc2cc(NCCCCN(CC)CC)ncc2cc1-c1c(Cl)cccc1Cl` was tested, and the IC50 [1] was 0.16 µM and the IC50 [2] was 0.014 µM.

With `COc1cc(OC)cc(-c2cc3cnc(NCCCCCN4CCN(C)CC4)cc3nc2NC(=O)NC(C)(C)C)c1` the IC50 [1] was 27 µM, the IC50 [2] was 6.1 µM and the IC50 [5] was 0.98 µM.

`CCNC(=O)Nc1nc2cc(NCCCN3CCN(C)CC3)ncc2cc1-c1cc(OC)cc(OC)c1` was tested, and the IC50 [1] was 30 µM, the IC50 [2] was 14 µM and the IC50 [5] was 7.5 µM.

In the case of `CN1CCN(CCCNc2cc3nc(NC(=O)NC(C)(C)C)c(-c4ccccc4)cc3cn2)CC1`, the IC50 [1] is reported as 1.2 µM and the IC50 [2] is reported as 0.23 µM.

For `COc1cc(OC)cc(C2Cc3cnc(N(CCCCOCc4ccccc4)C(C)=O)cc3N=C2NC(=O)NC(C)(C)C)c1` (stereo unspecified), the IC50 [1] was greater than 50 µM and the IC50 [2] was greater than 50 µM.

Work on `COc1cc(OC)cc(-c2cc3cnc(NCCCCO)cc3nc2NC(=O)NC(C)(C)C)c1` yielded an IC50 [1] of 23 µM, an IC50 [2] greater than 50 µM and an IC50 [5] of 1.2 µM.

With `CCN(CC)CCCCNc1cc2nc(N)c(-c3c(Cl)cccc3Cl)cc2cn1` the IC50 [1] was 4 µM and the IC50 [2] was 0.042 µM.

With `COc1cc(OC)cc(C2Cc3cnc(N(CCCO)C(C)=O)cc3N=C2NC(=O)NC(C)(C)C)c1` (stereo unspecified) the IC50 [1] was greater than 50 µM and the IC50 [2] was greater than 50 µM.

In the case of `CN1CCN(CCCNc2cc3nc(NC(=O)NC(C)(C)C)c(-c4c(Cl)cccc4Cl)cc3cn2)CC1`, the IC50 [1] is reported as 0.62 µM and the IC50 [2] is reported as 0.019 µM.

For `COc1cc(OC)cc(-c2cc3cnc(N(CCCCCO)C(C)=O)cc3nc2NC(=O)NC(C)(C)C)c1`, the IC50 [1] was greater than 50 µM and the IC50 [2] was greater than 50 µM.

`COc1cc(OC)cc(-c2cc3cnc(NCCCCOc4ccccc4)cc3nc2NC(=O)NC(C)(C)C)c1` gave an IC50 [1] greater than 50 µM and an IC50 [2] greater than 50 µM.

Work on `COc1cc(OC)cc(-c2cc3cnc(NCCCCCOc4ccccc4)cc3nc2NC(=O)NC(C)(C)C)c1` yielded an IC50 [1] greater than 50 µM and an IC50 [2] greater than 50 µM.

`CCNC(=O)Nc1nc2nc(NCCCN3CCN(C)CC3)ncc2cc1-c1cc(OC)cc(OC)c1` gave an IC50 [1] of 45 µM, an IC50 [2] of 35 µM and an IC50 [5] of 12 µM.

`COc1cc(OC)cc(-c2cc3cnc(NCCCO)cc3nc2NC(=O)NC(C)(C)C)c1` was tested, and the IC50 [1] was 32 µM, the IC50 [2] was greater than 50 µM and the IC50 [5] was 1.8 µM.

In the case of `CCN(CC)CCCCCNc1cc2nc(NC(=O)NC(C)(C)C)c(-c3cc(OC)cc(OC)c3)cc2cn1`, the IC50 [1] is reported as 5 µM, the IC50 [2] is reported as 3.6 µM and the IC50 [5] is reported as 1.5 µM.

`COc1cc(OC)cc(-c2cc3cnc(NCCCO)nc3nc2NC(=O)NC(C)(C)C)c1` showed an IC50 [1] greater than 50 µM, an IC50 [2] greater than 50 µM and an IC50 [5] of 11 µM.

In the case of `CCNC(=O)Nc1nc2nc(NCCCCN(CC)CC)ncc2cc1-c1cc(OC)cc(OC)c1`, the IC50 [1] is reported as 27 µM, the IC50 [2] is reported as 22 µM and the IC50 [5] is reported as greater than 25 µM.
